# Laboratory results reported in patent publication US8841284B2, “Compound having neurite-outgrowing activity” (Lead Chemical Co., Ltd, priority 2009, dated 2014).
# B1: NGF: mNGF2. 5S (alomone labs, PRODUCT#N-100), used as mNGF-added medium (protein, UniProt P01139 122-241, looked up)
# Beta-nerve growth factor: SSTHPVFHMGEFSVCDSVSVWVGDKTTATDIKGKEVTVLAEVNINNSVFRQYFFETKCRASNPVESGCRGIDSKHWNSYCTTTHTFVKALTTDEKQAAWRFIRIDTACVCVLSRKATRRG
# modifications: Beta-nerve growth factor
# notes: mNGF2; 5S (alomone labs, PRODUCT#N-100), used as mNGF-added medium
# How the values were obtained:
# [1] = system: rat fetus (viviparity 17 days) cerebral cortex neuron; test: Neurite-outgrowing activity, rat fetus cerebral cortex neuron, poly-L-lysine-coated culture vessel; type: cell-based; conditions: for Neurite Density / Neurite Length / Neurite Thickness: relative amount, basal medium = 1
# Experimental: Rat fetus (viviparity 17 days) cerebral cortex neuron (Sumitomo Bakelite Co., Ltd.)
# From a frozen cerebral tissue, using an attached protocol and attached reagents, a cerebral cortex neuron was prepared, was cultured in an NSF-1 (neurotrophic factor; name of substance or the like is not disclosed)-added PNBM medium for 2 hours, and then in a PNBM medium containing the sample (the compound produced in Example 1).
# The dissemination was performed with a neuron concentration of 2×10^5 cells/0.5 mL/well (24-well-plate).
# (§1) The sample (the compound produced in Example 1) was dissolved in DMSO to prepare a 10 mM solution. The 10 mM solution was diluted with DMSO to prepare a 1 mM solution. Further dilution of the solution was performed with a PNBM medium.
# (§2) Finally, sample-added media of 0.2 μM concentration and 1 μM concentration were prepared. With respect to the mNGF medium, a 5 ng/mL mNGF-added medium and a 25 ng/mL mNGF-added medium were prepared.
# Culture in Poly-L-Lysine-Coated Culture Vessel
# (§3) On the third day of the culture, the culture medium was exchanged. Photographs of a neuron on the fifth day of the culture are shown in the drawings (a photograph of a neuron on the fifth day of the culture in the basal medium (additive-free) is shown in FIG. 4; a photograph of a neuron on the fifth day of the culture in the neurotrophic factor (NSF-1)-added medium is shown in FIG. 5; and a photograph of a neuron on the fifth day of the culture in the sample-added medium (1 μM concentration) is shown in FIG. 6). Here, the number in Table 1 indicates a relative amount when the value in the basal medium (additive-free) is assumed to be 1.
# [2] = system: rat spinal cord dorsal root ganglion neuron; test: Neurite (axon)-outgrowing activity, rat spinal cord dorsal root ganglion neuron, laminin-coated culture vessel; type: cell-based; conditions: fifth day of culture; for Neurite (axon) Density / Neurite (axon) Length / Neurite (axon) Thickness: relative amount, basal medium = 1
# Experimental: Rat spinal cord dorsal root ganglion (Takara Bio Inc.)
# Laminin-coated: a well was coated with a culture supernatant containing laminin 5B to be used.
# A spinal cord neuron in a frozen state was thawed according to the attached protocol and the neuron was cultured in an NSF-1-added PNBM medium for 2 hours and then in a PNBM medium containing the sample (the compound produced in Example 1).
# The dissemination was performed with a spinal cord neuron concentration of 2.5×10^4 cells/0.1 mL/well (96-well-plate).
# as §1, §2
# Culture in Laminin-Coated Culture Vessel
# A spinal cord neuron can easily outgrow a neurite (axon) and outgrows a neurite even in an additive-free medium.
# as §3, with “FIG. 10;” for “FIG. 4;”, “FIG. 11;” for “FIG. 5;”, “FIG. 12).” for “FIG. 6).”, “Table 2” for “Table 1”
# [3] = system: rat spinal cord dorsal root ganglion neuron; test: Neurite (axon)-outgrowing activity, rat spinal cord dorsal root ganglion neuron, laminin-coated culture vessel; type: cell-based; conditions: 1 μM; second day of culture; FIG. 9
molecule,measurement,setting,value
"C[C@@H]([C@H]1CC[C@H]2[C@@H]3CCc4cc(O)ccc4[C@H]3CC[C@]12C)[C@H]1CC=C(CO)C(=O)O1 [Example 1, 6-[1-(3-hydroxy-13-methyl-7,8,9,11,12,13,14,15,16,17-decahydro-6H-cyclopenta[a]phenanthren-17-yl)-ethyl]-3-hydroxymethyl-5,6-dihydropyran-2-one]",Neurite Density,"[1]; 0.2 μM, fifth day of culture",1
same,Neurite Length,"[1]; 0.2 μM, fifth day of culture",1
same,Neurite Thickness,"[1]; 0.2 μM, fifth day of culture",1
same,neurite-outgrowing activity (in words),"[1]; 1 μM, fifth day of culture",has a neurite-outgrowing activity
same,Neurite Density,"[1]; 1 μM, fifth day of culture",1.5
same,Neurite Length,"[1]; 1 μM, fifth day of culture",2
same,Neurite Thickness,"[1]; 1 μM, fifth day of culture",2
same,number of neurites (in words),"[1]; 1 μM, second day of culture, FIG. 3","the number of neurites increased more than in the basal medium (additive-free), but less than in the neurotrophic factor (NSF-1)-added medium"
same,Neurite (axon) Density,[2]; 0.2 μM,2
same,Neurite (axon) Length,[2]; 0.2 μM,2
same,Neurite (axon) Thickness,[2]; 0.2 μM,1
same,axon length and thickness (in words),[2]; 1 μM,the axon outgrew longer but did not become thicker
same,Neurite (axon) Density,[2]; 1 μM,2
same,Neurite (axon) Length,[2]; 1 μM,2.5
same,Neurite (axon) Thickness,[2]; 1 μM,1
same,melting point,,248 to 250 °C
same,axon outgrowth (in words),[3],"the axon outgrew more than in the basal medium (additive-free), but less than in the neurotrophic factor (NSF-1)-added medium"
B1,Neurite Density,"[1]; 5 ng/mL, fifth day of culture",2
same,Neurite Length,"[1]; 5 ng/mL, fifth day of culture",2
same,Neurite Thickness,"[1]; 5 ng/mL, fifth day of culture",2
same,Neurite Density,"[1]; 25 ng/mL, fifth day of culture",2.5
same,Neurite Length,"[1]; 25 ng/mL, fifth day of culture",2
same,Neurite Thickness,"[1]; 25 ng/mL, fifth day of culture",2
same,Neurite (axon) Density,[2]; 5 ng/mL,2
same,Neurite (axon) Length,[2]; 5 ng/mL,2
same,Neurite (axon) Thickness,[2]; 5 ng/mL,1
same,Neurite (axon) Density,[2]; 25 ng/mL,2
same,Neurite (axon) Length,[2]; 25 ng/mL,3
same,Neurite (axon) Thickness,[2]; 25 ng/mL,2
